By Kd is commonly meant the constant that tells how readily two partners part at equilibrium. A low value points to a tighter complex.

The values that follow come from patent US20240343747A1, “Heteroaryl compounds as inhibitors of TYK2, composition and application thereof” (Accro Bioscience (HK) Limited, priority 2021, published 2024).

The target in one test is TYK2 (Mus musculus (Mouse), UniProt Q9R117). Nature of the test: Luciferase assay in L929 ISRE cells stimulated with IFN-α. Format: cell-based. To be noted: IFN-α 100 ng/mL; for inhibition at 1 µM: 1000 nM, read-out: Inhibitory activity % (1000 nM); for inhibition at 0.01 µM: 10 nM, read-out: Inhibitory activity % (10 nM); for inhibition at 0.1 µM: 100 nM, read-out: Inhibitory activity % (100 nM); for inhibition at 0.05 µM: 50 nM, read-out: Inhibitory activity % (50 nM); for inhibition at 0.2 µM: 200 nM, read-out: Inhibitory activity % (200 nM). As to the method: • 1. L929 ISRE cells (5000 cells/well) were seeded on 96-well plates and incubated overnight at room temperature; • 2. The cells were pretreated by adding different concentrations (10 nM, 50 nM, 100 nM, 200 nM or 1000 nM) of the test compounds for 2 hours; • 3. Added IFN-α (100 ng/mL) to stimulate cells for 6 hours; • 4. Removed the upper medium, add PBS (100 μL) and washed, then removed PBS; • 5. Added PLB lysis solution (50 μL) to each well, shook the well for 15 minutes; • 6. Transferred PLB lysis solution (30 μL) to a new 96-well whiteboard, added LAR II reagent (LAR II), then quickly read the […]; • 7. Added Stop & Glo reagent (30 μL), then read the 450 nm OD value using the plate washer. • 8. The final results in Table 3 were the OD value in step 6/OD value in step 7.
TYK2, sequence (Q9R117 whole entry): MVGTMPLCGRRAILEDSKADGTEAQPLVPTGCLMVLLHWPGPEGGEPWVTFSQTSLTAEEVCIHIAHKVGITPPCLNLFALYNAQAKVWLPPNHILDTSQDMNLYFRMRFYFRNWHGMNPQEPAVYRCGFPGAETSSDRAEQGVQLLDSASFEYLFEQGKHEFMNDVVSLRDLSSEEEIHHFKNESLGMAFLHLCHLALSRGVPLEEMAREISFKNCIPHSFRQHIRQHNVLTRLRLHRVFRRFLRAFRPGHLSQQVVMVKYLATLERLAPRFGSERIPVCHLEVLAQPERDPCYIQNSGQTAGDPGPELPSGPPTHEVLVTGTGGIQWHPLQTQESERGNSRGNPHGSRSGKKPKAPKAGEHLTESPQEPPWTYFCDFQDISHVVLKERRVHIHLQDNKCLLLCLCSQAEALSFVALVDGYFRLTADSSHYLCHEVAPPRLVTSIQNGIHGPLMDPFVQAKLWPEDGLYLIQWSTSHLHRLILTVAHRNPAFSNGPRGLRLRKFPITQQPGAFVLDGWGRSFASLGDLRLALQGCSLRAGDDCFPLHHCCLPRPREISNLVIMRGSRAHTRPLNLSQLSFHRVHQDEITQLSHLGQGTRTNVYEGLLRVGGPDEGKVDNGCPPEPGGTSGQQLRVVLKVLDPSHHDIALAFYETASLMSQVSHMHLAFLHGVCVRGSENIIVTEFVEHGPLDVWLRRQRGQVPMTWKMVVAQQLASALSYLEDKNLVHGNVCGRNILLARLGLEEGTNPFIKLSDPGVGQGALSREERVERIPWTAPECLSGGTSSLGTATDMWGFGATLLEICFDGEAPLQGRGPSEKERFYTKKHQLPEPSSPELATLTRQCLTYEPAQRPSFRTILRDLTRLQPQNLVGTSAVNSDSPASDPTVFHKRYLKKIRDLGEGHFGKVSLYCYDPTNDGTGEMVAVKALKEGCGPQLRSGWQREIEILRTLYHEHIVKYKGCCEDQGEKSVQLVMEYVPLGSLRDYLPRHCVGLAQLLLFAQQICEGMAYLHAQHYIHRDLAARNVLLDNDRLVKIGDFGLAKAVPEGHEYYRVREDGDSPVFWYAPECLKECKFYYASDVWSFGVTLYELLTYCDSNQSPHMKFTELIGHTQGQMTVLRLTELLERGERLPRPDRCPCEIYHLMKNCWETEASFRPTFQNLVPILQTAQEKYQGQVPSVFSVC

A further test addresses TYK2 JH2 (Homo sapiens (Human), UniProt P29597). Nature of the test: Competitive binding assay (kinase-tagged phage, qPCR), TYK2 JH2. As to the method:
For most assays, kinase-tagged T7 phage strains were prepared in an E. coli host derived from the BL21 strain. E. coli were grown to log-phase and infected with T7 phage and incubated with shaking at 32° C. until lysis. The lysates were centrifuged and filtered to remove cell debris. The remaining kinases were produced in HEK-293 cells and subsequently tagged with DNA for qPCR detection. Streptavidin coated magnetic beads were treated with biotinylated small molecule ligands for 30 minutes at room temperature to generate affinity resins for kinase assays. The liganded beads were blocked with excess biotin and washed with blocking buffer (SeaBlock (Pierce), 1% BSA, 0.05% Tween 20, 1 mM DTT) to remove unbound ligand and to reduce non-specific binding. […] Test compounds were prepared as 111X stocks in 100% DMSO. Dissociation constants (Kds) were determined using an 11-point 3-fold compound dilution series with three DMSO control points. All compounds for Kd measurements are distributed by acoustic transfer (non-contact dispensing) in 100% DMSO. The compounds were then diluted directly into the assays such that the final concentration of DMSO was 0.9%. All reactions performed in polypropylene 384-well plate. Each was a final volume of 0.02 ml. The assay plates were incubated at room temperature with shaking for 1 hour and the affinity beads were washed with wash buffer (1×PBS, 0.05% Tween 20). The beads were then re-suspended in elution buffer (1×PBS, 0.05% Tween 20, 0.5 μM nonbiotinylated affinity ligand) and incubated at room temperature with shaking for 30 minutes. The kinase concentration in the eluates was measured by qPCR.
An 11-point 3-fold serial dilution of each test compound was prepared in 100% DMSO at 100× final test concentration and subsequently diluted to 1× in the assay (final DMSO concentration=1%). Most Kds were determined using a compound top concentration=30,000 nM. If the initial Kd determined was <0.5 nM (the lowest concentration tested), the measurement was repeated with a serial dilution starting at a lower top concentration.
Binding constants (Kds) were calculated with a standard dose-response curve using the Hill equation: […]
The Hill Slope was set to −1.
Curves were fitted using a non-linear least square fit with the Levenberg-Marquardt algorithm.
Background: Quantitative PCR measures a nucleic acid by following its amplification.

TYK2 JH2, sequence (P29597 589-875): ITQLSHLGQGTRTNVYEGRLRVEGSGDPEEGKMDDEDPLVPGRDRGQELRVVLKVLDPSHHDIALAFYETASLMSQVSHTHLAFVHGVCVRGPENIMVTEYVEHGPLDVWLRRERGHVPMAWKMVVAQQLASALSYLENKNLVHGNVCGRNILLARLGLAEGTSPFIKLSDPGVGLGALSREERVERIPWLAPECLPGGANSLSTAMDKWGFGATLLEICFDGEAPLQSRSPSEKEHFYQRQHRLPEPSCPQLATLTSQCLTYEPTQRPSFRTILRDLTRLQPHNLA

On to `CCC(=O)c1cnc(NC(=O)C2CC2)cc1Nc1cc(F)cc(-c2cc(P(=O)(CC)CC)n(C)n2)c1OC` [Compound B32], for which, at TYK2, the inhibition at 1 µM turned out to be 88%. The compound further showed a Kd at TYK2 JH2 of 25 pM.

Regarding `CCC(=O)c1cnc(NC(=O)C2CC2)cc1Nc1cccc(-c2cc(P(C)(C)=O)cs2)c1OC` [Compound B27], the inhibition at 1 µM at TYK2 worked out at 38%.

On to `CCC(=O)c1cnc(NC(=O)C2CC2)cc1Nc1cccc(-c2cc(P(C)(C)=O)n(C)n2)c1C#N` [Compound B20], for which, on TYK2, the inhibition at 0.01 µM came to 7%, the inhibition at 0.1 µM was 8% and the inhibition at 1 µM is 20%.

Consider `CNC(=O)c1nnc(NC(=O)C2CC2)cc1Nc1cccc(-c2cc(P(C)(C)=O)n(C)n2)c1OC` [Compound B39], for which, at TYK2, the inhibition at 0.1 µM came out at 34% and the inhibition at 1 µM turned out to be 80%. This compound also had a Kd on TYK2 JH2 of 6.4 pM.

On to `CCC(=O)c1cnc(NC(=O)C2CC2)cc1Nc1cccc(-c2nc(P(C)(C)=O)ns2)c1OC` [Compound B1, N-(4-((3-(3-(dimethylphosphoryl)-1,2,4-thiadiazol-5-yl)-2-methoxyphenyl)amino)-5-propionylpyridin-2-yl)cyclopropanecarboxamide], for which, at TYK2, the inhibition at 0.01 µM stood at 0%, the inhibition at 0.1 µM was determined as 0% and the inhibition at 1 µM worked out at 0%.

Turning to `CCC(=O)c1nnc(NC(=O)C2CC2)cc1Nc1cccc(-c2ccc(P(C)(C)=O)cn2)c1OC` [Compound B28], the inhibition at 1 µM at TYK2 was determined as 35%.

With `CCC(=O)c1cnc(NC(=O)C2CC2)cc1Nc1cc(F)cc(-c2cc(P(C)(C)=O)n(C)n2)c1OC` [Compound B17], at TYK2, the inhibition at 0.01 µM came to 25%, the inhibition at 0.1 µM is 45% and the inhibition at 1 µM was 67%.

For `CCC(=O)c1nnc(NC(=O)C2CC2)cc1Nc1cccc(-c2cc(P(C)(C)=O)n(CC)n2)c1OC` [Compound B31], the inhibition at 1 µM on TYK2 came out at 26%.

Take `[2H]C([2H])([2H])n1nc(-c2ccnc(Nc3cc(NC(=O)C4CC4)ncc3C(=O)CC)c2OC)cc1P(=O)(CC)CC` [Compound B33]: the inhibition at 1 µM at TYK2 is 86%. On TYK2 JH2, this compound yielded a Kd of 56 pM.

Consider `CCC(=O)c1cnc(NC(=O)C2CC2)cc1Nc1cccc(-c2ccc(P(C)(C)=O)nn2)c1OC` [Compound B8], for which, at TYK2, the inhibition at 1 µM was determined as 33%.

In the case of `CCC(=O)c1cnc(NC(=O)C2CC2)cc1Nc1cccc(-c2cc(P(C)(C)=O)nn2C)c1OC` [Compound B9], the inhibition at 1 µM on TYK2 came to 40%.

For `CNC(=O)c1nnc(NC(=O)C2CC2)cc1Nc1cccc(-c2ncc(P(C)(C)=O)cn2)c1OC` [Compound B40], on TYK2, the inhibition at 0.1 µM is 33% and the inhibition at 1 µM came out at 58%.

In the case of `CCC(=O)c1nnc(NC(=O)C2CC2)cc1Nc1cccc(-c2cc(P(C)(C)=O)n(C)n2)c1OC` [Compound B18, N-(5-((3-(5-(dimethylphosphoryl)-1-methyl-1H-pyrazol-3-yl)-2-methoxyphenyl)amino)-6-propionylpyridazin-3-yl)cyclopropanecarboxamide], at TYK2, the inhibition at 1 µM turned out to be 42%.

Consider `CCC(=O)c1cnc(NC(=O)C2CC2)cc1Nc1nccc(-c2cc(P(C)(C)=O)n(C)n2)c1OC` [Compound B19, N-(4-((4-(5-(dimethylphosphoryl)-1-methyl-1H-pyrazol-3-yl)-3-methoxypyridin-2-yl)amino)-5-propionylpyridin-2-yl)cyclopropanecarboxamide], for which, on TYK2, the inhibition at 0.01 µM amounted to 41%, the inhibition at 0.1 µM turned out to be 74% and the inhibition at 1 µM worked out at 88%. Further, the Kd at TYK2 JH2 came out at 75 pM.

In the case of `CCC(=O)c1cnc(NC(=O)C2CC2)cc1Nc1cccc(-c2cc(P(C)(C)=O)n(C)n2)c1F` [Compound B12], the inhibition at 1 µM on TYK2 was 0%.

Consider `CCC(=O)c1cnc(NC(=O)C2CC2)cc1Nc1cccc(-c2cccc(P(C)(C)=O)c2)c1OC` [Compound B7], for which the inhibition at 1 µM at TYK2 stood at 46%.

Consider `CNC(=O)c1nnc(NC(=O)C2CC2)cc1Nc1cccc(-c2cc(P(=O)(C3CC3)C3CC3)n(C)n2)c1OC` [Compound B44], for which the inhibition at 1 µM at TYK2 was 81%.

`CCC(=O)c1nnc(NC(=O)C2CC2)cc1Nc1cc(F)cc(-c2cc(P(C)(C)=O)n(C)n2)c1OC` [Compound B25]: the inhibition at 1 µM on TYK2 was found to be 13%.

For `CCC(=O)c1cnc(NC(=O)C2CC2)cc1Nc1cccc(-c2cc(P(=O)(CC)CC)n(C)n2)c1OC` [Compound B24], at TYK2, the inhibition at 0.1 µM worked out at 31% and the inhibition at 1 µM stood at 93%. The Kd on TYK2 JH2 was determined as 30 pM.

Take `CCC(=O)c1cnc(NC(=O)C2CC2)cc1Nc1ncnc(-c2cc(P(=O)(C3CC3)C3CC3)n(C)n2)c1OC` [Compound B46, N-(4-((6-(5-(dicyclopropylphosphoryl)-1-methyl-1H-pyrazol-3-yl)-5-methoxypyrimidin-4-yl)amino)-5-propionylpyridin-2-yl)cyclopropanecarboxamide]: on TYK2, the inhibition at 0.05 µM is 70%, the inhibition at 0.2 µM is 88% and the inhibition at 1 µM was 96%.

For the compound `[2H]C([2H])([2H])n1nc(-c2cccc(Nc3cc(NC(=O)C4CC4)ncc3C(=O)CC)c2OC)cc1P(=O)(CC)CC` [Compound B34], the inhibition at 1 µM at TYK2 turned out to be 87%. In addition, at TYK2 JH2, the affinity, expressed as Kd, was 44 pM.

Consider `[2H]C([2H])([2H])NC(=O)c1nnc(NC(=O)C2CC2)cc1Nc1cccc(-c2cc(P(=O)(CC)CC)n(C)n2)c1OC` [Compound B45], for which, on TYK2, the inhibition at 0.05 µM is 44%, the inhibition at 0.2 µM worked out at 83% and the inhibition at 1 µM is 95%.

With `CCC(=O)c1cnc(NC(=O)C2CC2)cc1Nc1cccc(-c2nc(P(C)(C)=O)cs2)c1OC` [Compound B6], the inhibition at 1 µM on TYK2 was 36%.

`CCC(=O)c1cnc(NC(=O)C2CC2)cc1Nc1cccc(-c2cc(P(C)(C)=O)n(C)n2)c1` [Compound B15]: the inhibition at 1 µM on TYK2 is 45%.

As to `[2H]C([2H])([2H])n1nc(-c2ccnc(Nc3cc(NC(=O)C4CC4)ncc3C(=O)CC)c2OC)cc1P(C)(C)=O` [Compound B35], the inhibition at 1 µM at TYK2 was found to be 60%. Besides, at TYK2 JH2, the affinity, expressed as Kd, was 25 pM.

As to `CCC(=O)c1cnc(NC(=O)C2CC2)cc1Nc1cccc(-c2ccccc2P(C)(C)=O)c1OC` [Compound B10], the inhibition at 1 µM at TYK2 was 50%.

`[2H]C([2H])([2H])NC(=O)c1nnc(NC(=O)C2CC2)cc1Nc1cccc(-c2cc(P(C)(C)=O)n(C)n2)c1OC` [Compound B42]: on TYK2, the inhibition at 1 µM was 65%.

Take `CCC(=O)c1cnc(NC(=O)C2CC2)cc1Nc1cccc(-c2cc(P3(=O)CCCC3)n(C)n2)c1OC` [Compound B30]: the inhibition at 1 µM on TYK2 was 75%.

For the compound `CCC(=O)c1cnc(NC(=O)C2CC2)cc1Nc1cccc(-c2cc(P(C)(C)=O)n(C)n2)c1C` [Compound B14], at TYK2, the inhibition at 1 µM was determined as 27%.

`CCC(=O)c1cnc(NC(=O)C2CC2)cc1Nc1cccc(-c2cc(P(C)(C)=O)n(C3CC3)n2)c1OC` [Compound B16]: at TYK2, the inhibition at 0.01 µM came to 35%, the inhibition at 0.1 µM came out at 38% and the inhibition at 1 µM turned out to be 55%.

In the case of `CCC(=O)c1cnc(NC(=O)C2CC2)cc1Nc1cccc(-c2ccc(P(C)(C)=O)nc2)c1OC` [Compound B21], on TYK2, the inhibition at 0.1 µM is 6% and the inhibition at 1 µM was 49%.

On to `CCC(=O)c1cnc(NC(=O)C2CC2)cc1Nc1cc(F)cc(-c2ncc(P(C)(C)=O)cn2)c1OC` [Compound B23], for which, at TYK2, the inhibition at 0.1 µM was determined as 8% and the inhibition at 1 µM was 46%.

Regarding `CCP(=O)(CC)c1cc(-c2cccc(Nc3cc(NC(=O)C4CC4)nnc3C(=O)NC)c2OC)nn1C` [Compound B43], the inhibition at 1 µM on TYK2 was 84%.

In the case of `CCC(=O)c1cnc(NC(=O)C2CC2)cc1Nc1nccc(-c2cc(P(=O)(CC)CC)n(C)n2)c1OC` [Compound B29], the inhibition at 1 µM at TYK2 came to 93%. The compound further yielded a Kd at TYK2 JH2 of 10 pM.

Consider `CCC(=O)c1cnc(NC(=O)C2CC2)cc1Nc1nccc(-c2ncc(P(=O)(CC)CC)cn2)c1OC` [Compound B36], for which the inhibition at 1 µM on TYK2 was 75%.
